Measurements from patent US20020010210A1, “PHARMACEUTICAL PREPARATION AND METHOD FOR TREATING CANCER” (priority 1997, published 2002).
Where a name gives a salt, the structure may show the parent alone. Ends that are not written are not given here.

What was measured:
[1] = tested on: bovine aortic endothelial BAE-2 cells; assay: Intracellular ascorbic acid cumulative amount in BAE-2 cells (Example 2); type: cell-based; conditions: 5 μM in culturing medium, cultured 20 hours
Experimental: About 6×10^5 bovine aortic endothelial BAE-2 cells (available from Hiroshima Prefecture University) were sowed on a 60 mmφ plate and cultured in a minimum essential culturing medium containing 20% dialyzed bovine fetus serum (available from Moregate) for 2 hours. After displacing with the same culturing medium containing 5 μM (in the case of magnesium ascorbic acid-2-phosphate, 50 μM) of ascorbic acid or a derivative thereof, the cells were further cultured for 20 hours.

[2] = tested on: spontaneous breast cancer rat cells (SST-2); assay: Lung metastasis of implanted SST-2 cells in SHR rats (Example 3); type: in vivo; conditions: 35 days after implantation; for Number of Metastasis Colonies (average), Peroral Administration: 1 mg/rat perorally from day of implantation to day 34; for Number of Metastasis Colonies (average), Subcutaneous Injection: 1 mg/rat subcutaneous injection from day of implantation to day 34
Experimental: 1×100,000 spontaneous breast cancer rat cells (SST-2) were subcutaneously implanted into the back of a rat (SHR rat) (5 rats per group) suffering from spontaneous hypertension. After 35 days, the rats were sacrificed, and the lung weight and the number of colonies formed were measured to examine the degree of metastasis of SST-2 to the lung. The compounds shown in Tables 3 and 4 each was administered perorally or through subcutaneous injection in a dose of 1 mg/rat over the period from the day of implantation to 34 days after implantation. The number of colonies formed was compared with that in the control group not subjected to any treatment, to examine metastasis to the lung.

[3] = tested on: spontaneous breast cancer rat cells (SST-2); assay: Lung metastasis of SST-2 in SHR rats, ascorbic acid derivative combined with known anticancer agent (Example 4); type: in vivo
Experimental: 1×100,000 spontaneous breast cancer rat cells (SST-2) were subcutaneously implanted into the back of a rat (SHR rat) (5 rats per group) suffering from spontaneous hypertension. After 35 days, the rats were sacrificed, and the number of colonies formed were measured to examine the degree of metastasis of SST-2 to the lung.
The ascorbic acid derivatives used were L-ascorbic acid-2-phosphate-6-palmitate, L-ascorbic acid-6-benzoate (reference compound) and magnesium L-ascorbic acid-2-phosphate.
Each of the groups treated with an ascorbic acid derivative was subjected to a test of administering the ascorbic acid derivative alone and to a test of administering the ascorbic acid derivative in combination with a known anticancer agent as shown in Table 4. Furthermore, tests of administering the anticancer agents alone were conducted. Over the period of from 7 days prior to implantation to 34 days after the implantation, the ascorbic acid derivative was injected through a vein in the tail region at a dose of 1 mg/1 day/rat. Each of the known anticancer agents was perorally administered in a minimum dose by reference to the concentration for a single use case described in the publication, Tyakuhin Yoran (Medical Product Handbook), 4th Edition, pp. 1474-1509, Yakugyo Jiho-Sha (1989), and the number of colonies formed after metastasis was compared.

[4] = tested on: spontaneous breast cancer rat cells (SST-2); assay: as above; type: in vivo; remark: listed apart in the source
[5] = ascorbic acid derivative 1 mg/1 day/rat tail vein, day -7 to day 34, known anticancer agent perorally in minimum dose, colonies after 35 days

Compound	Cancer metastasis inhibitory effect of combination with L-Ascorbic Acid-2-Phosphate-6-Palmitate versus each agent alone [3, 5]	Cancer metastasis inhibitory effect of combination with L-Ascorbic Acid-2-Phosphate-6-Benzoate versus each agent alone [4, 5]	Cancer metastasis inhibitory effect of combination with L-Ascorbic Acid-6-Palmitate versus each agent alone [4, 5]	Cancer metastasis inhibitory effect of combination with L-Ascorbic Acid-2-Phosphate-6-Palmitate versus each agent alone ([3]; rat, in vivo)	Cancer metastasis inhibitory effect of combination with L-Ascorbic Acid-2-Phosphate-6-Benzoate versus each agent alone ([4]; rat, in vivo)	Cancer metastasis inhibitory effect of combination with L-Ascorbic Acid-6-Palmitate versus each agent alone ([4]; rat, in vivo)	further results
O=C1O[C@H]([C@@H](O)CO)C(O)=C1OC1O[C@H](CO)[C@@H](O)[C@H](O)[C@H]1O (stereo partly drawn) [2-O-D-Glucopyranosil-L-ascorbic acid]							Intracellular Cumulative Amount [1]: <0.0003 Pmole/cell; Number of Metastasis Colonies (average), Peroral Administration [2]: 87.2; Number of Metastasis Colonies (average), Subcutaneous Injection [2]: 90.6
CC(CCC(C(=O)OC1=C(O)C(=O)O[C@@H]1[C@@H]1COC(c2ccccc2)O1)C(C)CC(C)(C)C)CC(C)(C)C (stereo partly drawn) [5,6-O-Benzylidene-3-O-[5,7,7-trimethyl-2-(1,3,3-timethylbutyl)]octanoylascorbic acid]							Intracellular Cumulative Amount [1]: 0.0008 Pmole/cell; Number of Metastasis Colonies (average), Peroral Administration [2]: 87.4; Number of Metastasis Colonies (average), Subcutaneous Injection [2]: 89.6
CC(C)(C)C(=O)OC[C@H](O)[C@H]1OC(=O)C(O)=C1OP(=O)(O)O [6-O-Pivaloyl-L-ascorbic acid-3-phosphate]							Number of Metastasis Colonies (average), Peroral Administration [2]: 89.6; Number of Metastasis Colonies (average), Subcutaneous Injection [2]: 86.2
CCCCCCCCCCCCCCCC(=O)OC[C@H](O)[C@H]1OC(=O)C(OC(=O)CCCCCCCCCCCCCCC)=C1O [L-Ascorbic acid-2,6-dipalmitate]							Number of Metastasis Colonies (average), Peroral Administration [2]: 89.8; Number of Metastasis Colonies (average), Subcutaneous Injection [2]: 86.6
CCCCCCCCCCCCCCCC(=O)OC[C@H](O)[C@H]1OC(=O)C(O)=C1O [L-Ascorbic acid-6-palmitate]							Number of Metastasis Colonies (average), Peroral Administration [2]: 85.4; Number of Metastasis Colonies (average), Subcutaneous Injection [2]: 83.0
O=C1O[C@H]([C@@H](O)CO)C(O)=C1O [L-Ascorbic acid]							Number of Metastasis Colonies (average), Peroral Administration [2]: 90.8; Number of Metastasis Colonies (average), Subcutaneous Injection [2]: 88.8
O=C1O[C@H]([C@@H](O)CO)C(O)=C1OP(=O)([O-])[O-].[Mg+2] [Magnesium L-ascorbic acid-2-phosphate]							Number of Metastasis Colonies (average), Peroral Administration [2]: 89.4; Number of Metastasis Colonies (average), Subcutaneous Injection [2]: 86.8
O=C1O[C@H]([C@@H](O)CO)C(O)=C1OS(=O)(=O)[O-].[Na+] [Sodium L-ascorbic acid-2-sulfate]							Number of Metastasis Colonies (average), Peroral Administration [2]: 86.2; Number of Metastasis Colonies (average), Subcutaneous Injection [2]: 85.4
CN(Cc1cnc2nc(N)nc(N)c2n1)c1ccc(C(=O)N[C@@H](CCC(=O)O)C(=O)O)cc1 [methotrexate]	+	+	−				
CO[C@@]12[C@H](COC(N)=O)C3=C(C(=O)C(C)=C(N)C3=O)N1C[C@@H]1N[C@@H]12 [mitomycin C]				+	+	−	
Cc1ncc(CNC(=O)N(CCCl)N=O)c(N)n1 [nimustine hydrochloride]				+	+	−	
CNNCc1ccc(C(=O)NC(C)C)cc1 [procarbazine hydrochloride]	+	+	−				
CC/C(=C(\c1ccccc1)c1ccc(OCCN(C)C)cc1)c1ccccc1 [tamoxifen citrate]	+	+	−				
O=c1[nH]c(=O)n(C2CCCO2)cc1F (stereo not drawn) [tegaful]				+	+	−	
OC[C@H]1O[C@@H](n2cnc3c(S)ncnc32)[C@H](O)[C@@H]1O [thioinosine]	+	+	−				
CC[C@]1(O)C[C@@H]2CN(CCc3c([nH]c4ccccc34)[C@@](C(=O)OC)(c3cc4c(cc3OC)N(C)[C@H]3[C@@](O)(C(=O)OC)[C@H](OC(C)=O)[C@]5(CC)C=CCN6CC[C@]43[C@@H]65)C2)C1 [vinblastine sulfate]	+	+	−				
CC[C@]1(O)C[C@H]2CN(CCc3c([nH]c4ccccc34)[C@@](C(=O)OC)(c3cc4c(cc3OC)N(C=O)[C@H]3[C@@](O)(C(=O)OC)[C@H](OC(C)=O)[C@]5(CC)C=CCN6CC[C@]43[C@@H]65)C2)C1 [vincristine sulfate]	+	+	−				
CC[C@]1(O)C[C@@H]2CN(CCc3c([nH]c4ccccc34)[C@@](C(=O)OC)(c3cc4c(cc3OC)N(C)[C@H]3[C@@](O)(C(N)=O)[C@H](O)[C@]5(CC)C=CCN6CC[C@]43[C@@H]65)C2)C1 [vindesine sulfate]	+	+	−				
CDPGYIGSR-NH2 [CDPGYGSR-NH2]				+	+	−	
CIZOFERAN	+	+	−				
L-asparginase				+	+	−	
PLEOMYCIN sulfate				+	+	−	
Platelet Factor-4				+	+	−	
lentinan	+	+	−				
neocarzinostatin	+	+	−				
peptidoglycan	+	+	−				
pleomycin hydrochloride				+	+	−	
protamine				+	+	−	
vebromycin sulfate				+	+	−	
